Measured values: US12157722B1, “Crystalline hydrochloride salts of N-ethyl-2-(5-fluoro-1H-indol-3-yl)-N-methylethan-1-amine” (Gilgamesh Pharmaceuticals, Inc., priority 2023, dated 2024)

Tests used:
[1] = Exposure of dry cake to humidity, solid form checked by XRPD; assay type: physicochemical; conditions: for XRPD pattern, dry cake exposed to humidity: monofumarate solids exposed to humidity (90% RH/30° C.)
[2] = Dynamic Vapor Sorption (DVS); assay type: physicochemical; conditions: 25° C., 75% RH
Procedure: Dynamic Vapor Sorption (DVS) was performed using a Q5000SA. The sample (5-15 mg) was loaded into a metallic quartz sample pan, suspended from a microbalance, and exposed to a humidified stream of nitrogen gas. Weight changes were relative to a matching empty reference pan opposite the sample, suspended from the microbalance. The sample was held for a minimum of 10 min at each level and only progressed to the next humidity level if there was <0.002% change in weight between measurements (interval: 5 s) or 45 min had elapsed (for 5-65% RH) or 2 h had elapsed (for 80 and 95% RH). The following programs were used: • 1—Equilibration at 50% RH • 2—50% to 5%. (50%, 35%, 20%, and 5%) • 3—5% to 95%(5%, 20%, 35%, 50%, 65%, 80%, and 95%) • 4—95% to 5%(95%, 80%, 65%, 50%, 35%, 20%, and 5%) • 5—5% to 50% (5%, 20%, 35%, and 50%) • 1—Equilibration at 50% RH • 2—50% to 2%. (50%, 40%, 30%, 20%, 10%, and 2%) • 3—2% to 75%(2%, 10%, 20%, 30%, 40%, 50%, 60%, 70% and 75%) • 4—75% to 2%(75%, 70%, 60%, 50%, 40%, 30%, 20%, 10% and 2%) • 5—2% to 50% (2%, 10%, 20%, 30%, 40% and 50%) • 1—Equilibration at 50% RH • 2—50% to 2%.(50%, 40%, 30%, 20%, 10%, and 2%) • 3—2% to 65% (2%, 10%, 20%, 30%, 40%, 50%, 60% and 65%) • 4—65% to 2% (65%, 60%, 50%, 40%, 30%, 20%, 10% and 2%) • 5—2% to 50% (2%, 10%, 20%, 30%, 40% and 50%). […]

## CCN(C)CCc1c[nH]c2ccc(F)cc12.O=C(O)/C=C/C(=O)O [monofumarate Form 2, N-ethyl-2-(5-fluoro-1H-indol-3-yl)-N-methylethan-1-amine monofumarate Form 2]
[1]
  XRPD pattern, dry cake exposed to humidity: slowly converted to Form 1

## CCN(C)CCc1c[nH]c2ccc(F)cc12.Cl [hydrochloride Form 1, N-ethyl-2-(5-fluoro-1H-indol-3-yl)-N-methylethan-1-amine hydrochloride Form 1]
[2]
  DVS isotherm, equilibration behaviour: did not reach equilibrium at 75% RH

## CCN(C)CCc1c[nH]c2ccc(F)cc12.CCN(C)CCc1c[nH]c2ccc(F)cc12.O=C(O)/C=C/C(=O)O [hemifumarate Form 1, N-ethyl-2-(5-fluoro-1H-indol-3-yl)-N-methylethan-1-amine hemifumarate Form 1]
[1]; hemifumarate dry cake from EtOH:MTBE (1:1 vol.) exposed to humidity
  XRPD pattern, Humid: deliquescent

## CCN(C)CCc1c[nH]c2ccc(F)cc12.O=C(O)/C=C/C(=O)O [monofumarate Form 1, N-ethyl-2-(5-fluoro-1H-indol-3-yl)-N-methylethan-1-amine monofumarate Form 1]
[1]
  XRPD pattern, dry cake exposed to humidity: Form 1
